MIC data for twelve molecules are collected here from ChEMBL document CHEMBL5634137, “2,4-Diacetylphloroglucinol (DAPG) derivatives rapidly eradicate methicillin-resistant staphylococcus aureus without resistance development by disrupting membrane” (Eur J Med Chem, 2023).

Values after ≈ are worked out from the molar mass of the structure shown.

The subject of the first assay is Staphylococcus aureus. In words: Antibacterial activity against methicillin-resistant Staphylococcus aureus ATCC 4330 assessed as inhibition of bacterial growth incubated for 24 hrs by broth dilution method. In kind it is functional.
Regarding `O=C(c1c(O)cc(O)cc1O)C1CC1`, the MIC amounted to 16 µg/mL (≈ 82.4 µM).
Take `CCC(=O)c1c(O)cc(O)c(C(=O)CC)c1O`: the MIC stood at 4 µg/mL (≈ 16.8 µM).
Consider `CC(=O)c1c(O)cc(O)cc1O` [2,4,6-TRIHYDROXYACETOPHENONE], for which the MIC was over 64 µg/mL.
With `CCC(C)C(=O)c1c(O)cc(O)cc1O` (centres undefined), the MIC was 32 µg/mL (≈ 152 µM).
As to `O=C(c1c(O)cc(O)c(C(=O)C2CC2)c1O)C1CC1`, the MIC came out at 8 µg/mL (≈ 30.5 µM).
Regarding `CC(C)CCC(=O)c1c(O)cc(O)cc1O`, the MIC came out at 32 µg/mL (≈ 143 µM).
As to `CCCC(=O)c1c(O)cc(O)cc1O`, the MIC was over 64 µg/mL.
On the same count and under the same terms, the result for `CCCCC(=O)c1c(O)cc(O)cc1O` reads over 64 µg/mL; that for `O=C(Cc1ccccc1)c1c(O)cc(O)cc1O`, 32 µg/mL (≈ 131 µM).
In the case of `O=C(c1c(O)cc(O)cc1O)C1CCC1`, the MIC amounted to 32 µg/mL (≈ 154 µM).
Regarding `CCCC(=O)c1c(O)cc(O)c(C(=O)CCC)c1O`, the MIC is 4 µg/mL (≈ 15 µM).
For `COc1cc(O)c(C(C)=O)c(OC)c1C(C)=O`, the MIC was over 64 µg/mL.

The test system of another assay is Staphylococcus aureus. In words: Antibacterial activity against methicillin-resistant Staphylococcus aureus ATCC 3392 assessed as inhibition of bacterial growth incubated for 24 hrs by broth dilution method. Type of assay: functional.
As for `O=C(c1c(O)cc(O)cc1O)C1CC1`, the MIC worked out at 32 µg/mL (≈ 165 µM).
Take `CCC(=O)c1c(O)cc(O)c(C(=O)CC)c1O`: the MIC was found to be 8 µg/mL (≈ 33.6 µM).
As for `CC(=O)c1c(O)cc(O)cc1O` [2,4,6-TRIHYDROXYACETOPHENONE], the MIC was over 64 µg/mL.
`CCC(C)C(=O)c1c(O)cc(O)cc1O` (centres undefined): the MIC is over 64 µg/mL.
On the same count and under the same terms, under `O=C(c1c(O)cc(O)c(C(=O)C2CC2)c1O)C1CC1` stands 8 µg/mL (≈ 30.5 µM); under `CC(C)CCC(=O)c1c(O)cc(O)cc1O`, 64 µg/mL (≈ 285 µM); under `CCCC(=O)c1c(O)cc(O)cc1O`, over 64 µg/mL.
Regarding `CCCCC(=O)c1c(O)cc(O)cc1O`, the MIC is over 64 µg/mL.
As for `O=C(Cc1ccccc1)c1c(O)cc(O)cc1O`, the MIC is over 64 µg/mL.
In the case of `O=C(c1c(O)cc(O)cc1O)C1CCC1`, the MIC stood at 32 µg/mL (≈ 154 µM).
The same measure, in the same setting: under `CCCC(=O)c1c(O)cc(O)c(C(=O)CCC)c1O` stands 4 µg/mL (≈ 15 µM); under `COc1cc(O)c(C(C)=O)c(OC)c1C(C)=O`, over 64 µg/mL.
